Source: PMC4550830, “Pheromone binding proteins enhance the sensitivity of olfactory receptors to sex pheromones in Chilo suppressalis” (Scientific Reports, 2015)
“And” between values parts separate entries of the source, which are not always exact repeats. Equal values may be shown once.

Key:
CsupPBP3 = biological target: T1, CsupPBP3 (Chilo suppressalis, UniProt F6K0S3); assay: Fluorescence binding assay (1-NPN titration and competitive displacement), CsupPBP3; settings: 2 μM protein in 50 mM Tris-HCl titrated with 1-NPN, triplicates
T1 sequence (F6K0S3 22-166): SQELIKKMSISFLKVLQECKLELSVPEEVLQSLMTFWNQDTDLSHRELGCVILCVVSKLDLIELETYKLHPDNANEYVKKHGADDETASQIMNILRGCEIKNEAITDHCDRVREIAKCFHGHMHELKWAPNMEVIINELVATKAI
Method: In order to measure the affinity of CsupPBP1–4 to the fluorescent probe N-phenyl-1-naphthylamine (1-NPN), a 2 μM solution of each CsupPBP in 50 mM Tris-HCl buffer was titrated with 1 mM 1-NPN in methanol to final concentrations of 2–16 μM. The affinities of CsupPBP1–4 to other ligands were measured in competitive binding assays, where a 2 μM solution of both CsupPBPs and 1-NPN was titrated with 1 mM methanol solutions of each lignd to final concentrations of 0.2–1.6 μM. The Prism software was used to analyse the data and plot the binding curves. The ability of ligand to compete with 1-NPN was measured in competitive binding assays, where a mixture of the protein and 1-NPN, both at the concentration of 2 μM were titrated with 0.1 mM or 1 mM solutions of each ligand to the final concentrations reported in the figures. Fluorescence intensities are reported as percent of the values measured in the absence of competitors. All experiments were performed in triplicates and mean values and standard errors are reported. Binding constants of competitors were calculated from the corresponding IC50 values using the equation: KD = [IC50]/1 + [1-NPN]/K1-NPN, [1-NPN] being the free concentration of 1-NPN and K1-NPN being the dissociation constant of the complex Protein/1-NPN.

CsupPR1/CsupOrco = assay: Two-electrode voltage clamp recording from Xenopus oocytes coexpressing CsupPR1/CsupOrco; type: cell-based, Chilo suppressalis; settings: ligand 10^−4 mol/L, each of the four CsupPBPs versus DMSO alone
Description: (§1) The ORFs encoding CsupPRs were amplified and cloned into pT7Ts vector using specific primers (Supplementary Table S1). The cRNAs of all CsupPRs were synthesized using mMESSAGE Mmachine T7 kit (Ambion, Austin, TX).
(§2) The entire coding region of each CsupOR was sub-cloned into the XhoI/NotI sites of pT7Ts vector (Invitrogen) (Kozak sequence added before the cutting site in forward primer). The cRNAs of all CsupPRs were synthesized using mMESSAGE Mmachine T7 kit (Ambion, Austin, TX).
(§3) Electrophysiological recordings were performed according to previously reported protocols. Mature healthy oocytes (stage V–VII) (Nasco, Salida, California) were treated with collagenase I(GIBCO, Carlsbad, CA) in washing buffer (96 mM NaCl, 2 mM KCl, 5 mM MgCl2, and 5 mM HEPES [pH = 7.6]) for about 1 h at room temperature. […]
(§4) Whole-cell currents were recorded from the injected Xenopus oocytes with a two-electrode voltage clamp. Odorant induced currents were recorded with an OC-725C oocyte clamp (Warner Instruments, Hamden, CT) at a holding potential of […]. […]
(§5) Data acquisition and analyses were carried out with Digidata 1440A and pCLAMP 10.2 software (Axon Instruments Inc., Union City, CA). Statistical comparison of responses of oocytes to the tested ligands and dose-response data were analysed by GraphPad Prism 5.0 (GraphPad Software Inc., San Diego, CA). […]

CsupPR4/CsupOrco = assay: Two-electrode voltage clamp recording from Xenopus oocytes coexpressing CsupPR4/CsupOrco; type: cell-based, Chilo suppressalis
Description: as §1, §2, §3, §4, §5

CsupPR6/CsupOrco = assay: Two-electrode voltage clamp recording from Xenopus oocytes coexpressing CsupPR6/CsupOrco; type: cell-based, Chilo suppressalis; settings: ligand 10^−4 mol/L; for Effect of PBPs on the response of PR6: each of the four CsupPBPs versus DMSO alone
Description: as §1, §2
(§6) Electrophysiological recordings were performed according to previously reported protocols. Mature healthy oocytes (stage V–VII) (Nasco, Salida, California) were treated with collagenase I(GIBCO, Carlsbad, CA) in washing buffer (96 mM NaCl, 2 mM KCl, 5 mM MgCl2, and 5 mM HEPES [pH = 7.6]) for about 1 h at room temperature. After being cultured overnight at 18 °C, oocytes were microinjected with 27.6 ng CsupORs cRNA and 27.6 ng CsupOrco cRNA. After injection, oocytes were incubated for 4–7 days at 18 °C in 1X Ringer’s solution (96 mM NaCl, 2 mM KCl, 5 mM MgCl2, 0.8 mM CaCl2, and 5 mM HEPES [pH = 7.6]) supplemented with 5% dialysed horse serum, […].
(§7) Whole-cell currents were recorded from the injected Xenopus oocytes with a two-electrode voltage clamp. Odorant induced currents were recorded with an OC-725C oocyte clamp (Warner Instruments, Hamden, CT) at a holding potential of […]. All experiments on PR responses were performed in six replicates, those involving interactions with PBPs in four replicates.
(§8) Data acquisition and analyses were carried out with Digidata 1440A and pCLAMP 10.2 software (Axon Instruments Inc., Union City, CA). Statistical comparison of responses of oocytes to the tested ligands and dose-response data were analysed by GraphPad Prism 5.0 (GraphPad Software Inc., San Diego, CA).
(§9) Tested pheromone components and analogs were purchased from Nimrod Inc (Changzhou, China, purify 96%). they were dissolved in dimethyl sulfoxide (DMSO) to 1 M Stock solutions and stored at −20 °C. Before testing, the stock solutions were diluted with 1 X Ringer’s buffer (96 mM NaCl, 2 mM KCl, 5 mM MgCl2, 0.8 mM CaCl2 and 5 mM HEPES [pH = 7.6]).

CsupPR2/CsupOrco = assay: Two-electrode voltage clamp recording from Xenopus oocytes coexpressing CsupPR2/CsupOrco; type: cell-based, Chilo suppressalis
Description: as §1, §2, §6, §7, §8, §9

[1] = ligand 10^−4 mol/L, each of the four CsupPBPs versus receptor alone

In the case of `c1ccc(Nc2cccc3ccccc23)cc1` [1-NPN, N-phenyl-1-naphthylamine], the Kd (CsupPBP3) is reported as ~3 µM and 3.1 µM.

For `CCCC/C=C\CCCCCCCCO` [Z9–14:OH], the “Effect of PBPs on the response of PR1” value (CsupPR1/CsupOrco) was “inhibitory effect”, the “Effect of PBPs on the response of PR4” value (CsupPR4/CsupOrco; [1]) was “inhibitory effect” and the “Effect of PBPs on the response of PR6” value (CsupPR6/CsupOrco) was “inhibitory effect”. The “Effect of PBPs on the response of PR6” value (CsupPR6/CsupOrco; listed as 4) was “reduction of the signal” and the “Effect of PBPs on the response of PR2” value (CsupPR2/CsupOrco; [1]) was “inhibitory effect”.

For `CCCCCC/C=C\CCCCCCCC=O` [Z9–16:Ald, (Z)-9-hexadecenal], the “Inward current response of PR4” value (CsupPR4/CsupOrco; ligand 0.1 mM, no PBP, n = 6) was “specifically tuned”.

With `CCCC/C=C\CCCCCCCCCC=O` [Z11–16:Ald, (Z)-11-hexadecenal] the “Response of PR6 in the presence of PBP4 compared with other PBPs” value (CsupPR6/CsupOrco; PBP4) was “more strongly activated”, the “Effect of PBPs on the response of PR6” value (CsupPR6/CsupOrco) was “increased” and the “Increase in sensitivity (EC50) of PR2 in the presence of PBP1” value (CsupPR2/CsupOrco; dose-response with versus without PBP1) was “to minor extents”. For the same compound, the “Increase in sensitivity (EC50) of PR2 in the presence of PBP2” value (CsupPR2/CsupOrco; dose-response with versus without PBP2) was “more than one order of magnitude”, the “Increase in sensitivity (EC50) of PR2 in the presence of PBP3” value (CsupPR2/CsupOrco; dose-response with versus without PBP3) was “to minor extents” and the “Change in sensitivity (EC50) of PR2 in the presence of PBP4” value (CsupPR2/CsupOrco; dose-response with versus without PBP4) was “not affected”.
